Laboratory results: patent US20100093861A1, “TREATMENT OF INSULIN RESISTANCE OR DISEASES ASSOCIATED WITH INSULIN RESISTANCE” (Stevia ApS, priority 2006, published 2010)

Columns and labels:
[1] = test system: KKAy-mice; assay: In vivo study of plasma insulin, glucose, triglycerides and body weight in KKAy-mice after isosteviol (Example 3)
Procedure: Twenty six male KKAy-mice (Clea Japan, Tokyo, Japan), all 5 week-old, weighing 22-25 g were randomized to 2 groups and treated for 9 weeks with; • A: standard chow diet (control); • B: standard chow diet+20 mg/kg BW of Isosteviol (hereinafter ISV).
The composition of the standard chow diet dry matter was: Protein 24%, carbohydrate 71%, and Lipids 5%. ISV (ent-16-ketobeyeran-19-oic acid; Wako Pure Chemical Industries, Osaka, Japan) was incorporated in the mice food pellet and administered orally.
Hormones and lipids were measured from blood sample at start and end of the treatment period. Blood sample was taken from the tail of the animals on chilled tubes containing heparin/aprotinin and centrifuged (4000 g, 60 seconds, […]), and plasma was frozen for subsequent analysis of insulin, glucose and triglycerides. Fasting blood glucose, as well as BW, was measured before and after intervention.
Plasma blood glucose was determined using the glucose oxidase method (GOD-PAP,
Boehringer Mannheim, GmbH Germany). Insulin was determined by radioimmunoassay with a guinea pig antiporcine insulin antibody (PNILGP4, Novo Nordisk, Bagsvaerd, Denmark), and mono-[125I]-(Tyr A14) labelled human insulin (Novo Nordisk) as tracer and rat insulin (Novo Nordisk) as standard. We separated free and bound radioactivity using ethanol (Heding, 1972). Interassay and intra-assay variation was below 10%. […] Triglycerides was determined using colorimetric kits (Roche Diagnostics, Boehringer Mannheim, GmbH Germany). The fasting glucose-insulin index was calculated as the product of plasma insulin and plasma glucose ([plasma insulin ng/ml]×[plasma glucose mmol/l]/1000) and compared between groups as relative units (Chang et al., 2005).

[2] = test system: Ins1; assay: Relative real time RT-PCR in islets of KKAy mice (Example 3): Ins1; assay type: in vivo; settings: 9 weeks
Procedure: (§1) Islets were isolated by the collagenase digestion technique. In brief, the animals were anesthetized with pentobarbital (50 mg/kg intraperitoneally) and midline laparotomy was performed. The pancreas was retrogradely filled with 3 mL ice-cold Hanks balanced salt solution (([HBSS] Sigma Chemical, St Louis, Mo.) supplemented with 0.3 mg/ml collagenase Boehringer Mannheim GmbH, Germany). The pancreas was subsequently removed and incubated for 19 minutes at 37° C. After rinsing in HBSS, the islets were handpicked under a stereomicroscope and immediately transferred to a tubes containing 1 ml Trizol (Gibco/Invitrogene, Calsbad, Calif., USA). The islets isolated from the NMRI mice were incubated overnight at 37° C. and 95% normal atmosphere/5% CO2 in 10 ml RPMI 1640 containing 11.1 mmol/L glucose supplemented with penicillin G and 100 μg/mL streptomycin (all Gibco/Invitrogene, Calsbad, Calif., USA).
(§2) For each group, islets from 3-4 mice (180-200 islets) were pooled in 1 ml Trizol reagent (Gibco/lnvitrogene, Calsbad, Calif., USA) before RNA purification. Total RNA was extracted according to the manufactures' instructions. RNA was quantified by measuring absorbance at 260 and 280 nm. The quality of the RNA was checked by the Agilent 2100 bioanalyzer (Agilent, Santa Clara, USA). […]

[3] = test system: C/EBPalpha; assay: Relative real time RT-PCR in islets of KKAy mice (Example 3): C/EBPalpha; assay type: in vivo; settings: 9 weeks
Procedure: as §1, §2

[4] = test system: visfatin; assay: Affymetrix gene chip analysis of KKAy islets: visfatin; assay type: in vivo, mice; settings: ISV vs. KKAy control islets, 9 weeks
Procedure: (§3) cRNA preparation and in vitro transcription: In total 6 Affymetrix arrays MOE430 2.0 probe array cartridge were used i.e. for analysis of 3 replicas for the KKAy control group and the ISV group, respectively. Each of the 6 samples consisted of pooled RNA from 3-4 KKAy mice. Preparation of target for hybridization was prepared from 340 ng of total RNA using MessageAmp™ II aRNA Amplification Kits (Ambion), according to the manufacturers instructions. Arrays were hybridised and scanned as described elsewhere (Kruhoffer et al., 2005).

[5] = test system: Pax6; assay: Affymetrix gene chip analysis of KKAy islets: Pax6; assay type: in vivo, mice; settings: ISV vs. KKAy control islets, 9 weeks
Procedure: as §3

[6] = test system: Nkx2-2; assay: Affymetrix gene chip analysis of KKAy islets: Nkx2-2; assay type: in vivo, mice; settings: ISV vs. KKAy control islets, 9 weeks
Procedure: as §3

[7] = test system: Nkx6-1; assay: Affymetrix gene chip analysis of KKAy islets: Nkx6-1; assay type: in vivo, mice; settings: ISV vs. KKAy control islets, 9 weeks
Procedure: as §3

[8] = ISV group of KKAy mice, age 5 weeks, before treatment
[9] = KKAy mice, 20 mg/kg BW in diet, after 9-week treatment

In the case of C[C@@]12CC[C@@H]3[C@@](CC[C@H]4[C@@]3(C)CCC[C@@]4(C)C(=O)O)(CC1=O)C2 (single isomer, unassigned; ent-16) [ISV, ent-16-ketobeyeran-19-oic acid], the “reduction of plasma insulin increase compared to the KKAy control” value ([1]; 9 weeks treatment) is reported as 62%, the “reduction of the plasma TG increase in the KKAy” value ([1]; 9 weeks treatment) is reported as 74% and the “glucose-insulin index at start of study” value ([1]; ISV group of KKAy mice before treatment, product of plasma insulin and plasma glucose) is reported as 8.6 unit. The “plasma glucose at start of study” value [1, 8] was 8.9 mmol/L, the “plasma insulin at start of study” value [1, 8] was 1.0 ng/mL and the “plasma TG level at age 5 week” value ([1]; ISV group of KKAy mice, before treatment) was 1.25 mmol/L. The “reduction in plasma glucose compared to the increase for the KKAy” value ([1]; KKAy at 5 weeks as baseline, 9 weeks treatment) was 59%, the “plasma TG level at age 14 weeks” value ([1]; KKAy mice after 9 weeks treatment) was 2.02 mmol/L and the “glucose-insulin index at the end of the study” value ([1]; KKAy mice after 9 weeks treatment, product of plasma insulin and plasma glucose) was 1596 unit. For the same compound, the “plasma glucose at the end of the study” value [1, 9] was 16.2 mmol/L, the “plasma insulin at the end of the study” value [1, 9] was 80.9 ng/mL and the “fold increase of plasma glucose during study period” value ([1]; KKAy mice, 20 mg/kg BW, 9 weeks, KKAy control 2.8 fold) was 1.8 fold. The “fold increase of plasma insulin during study period” value ([1]; KKAy mice, 20 mg/kg BW, 9 weeks, KKAy control 266 fold) was 81 fold, the “increase of TG level at age 14 weeks compared to age 5 week” value ([1]; KKAy mice, 9 weeks treatment, KKAy control 192%) was 62% and the “reduction in weight at the end of the 9 week treatment period” value ([1]; KKAy mice, vs. KKAy control) was 13%. For the same compound, the “body weight after 5 weeks” value ([1]; KKAy mice, KKAy control 38.6 g) was 29.9 g, the “body weight after 9 weeks treatment” value ([1]; KKAy mice, KKAy control 41.6 g) was 36.3 g and the “increase in Ins1 expression” value ([2]; RT-PCR) was “more than 2 fold”. The “increased expression of Ins1, ISV group vs. control group” value ([2]; normalized to 18S rRNA) was 132%, the “reduction of C/EBP-alpha mRNA expression” value ([3]; RT-PCR) was 2 fold and the “decreased expression of C/EBPalpha, ISV group vs. control group” value ([3]; normalized to 18S rRNA) was 49%. The “array: change of visfatin expression” value [4] was “no changes”, the “array: increased expression in Pax6” value [5] was 1.9 fold and the “array: increased expression in Nkx2-2” value [6] was 2.3 fold. The “array: increased expression in Nkx6-1” value [7] was 2.64 fold.
